Columns and labels:
cyclophilin A = cyclophilin A (Homo sapiens (Human), UniProt P62937); test: Functional peptidyl prolyl isomerase (PPIase) spectrophotometric assay, cyclophilin A; type: biochemical; conditions: first value of CypA/D cell
Outline: (§1)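 Cuvette-based UV/Vis assay of PPIase-catalysed cis-to-trans isomerisation of a peptide substrate. First-order rate constants fitted to absorbance, background rate subtracted. Ki derived from rate constant versus inhibitor concentration, typically 6-point curves in duplicate.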

cyclophilin D = cyclophilin D (Homo sapiens (Human), UniProt P30405); test: Functional peptidyl prolyl isomerase (PPIase) spectrophotometric assay, cyclophilin D; type: biochemical; conditions: second value of CypA/D cell; read-out: Ki CypD
cyclophilin D, sequence (P30405 30-207, species assumed): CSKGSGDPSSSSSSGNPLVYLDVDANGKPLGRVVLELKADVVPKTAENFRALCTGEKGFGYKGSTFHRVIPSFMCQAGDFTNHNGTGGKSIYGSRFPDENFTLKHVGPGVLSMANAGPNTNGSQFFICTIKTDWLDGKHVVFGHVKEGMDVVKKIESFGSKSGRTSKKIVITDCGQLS
Outline: as §1

[1] = test system: permeabilised HepG2 cells; test: Calcium retention capacity (CRC) assay in permeabilised HepG2 cells (MPTP opening); type: cell-based, human; parameters: CRC [10 μM]: unit not given here; conditions: compound at 10 μM; for CRC [10 μM]: digitonin permeabilised HepG2 cells; for CRC [10 μM] (ratio vs CsA): normalised to cyclosporin A, value in brackets
Outline: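 Digitonin-permeabilised HepG2 cells received trains of calcium pulses (typically 5 μM) monitored with Calcium Green-5N until buffering failed, marking permeability transition. Runs with and without compound; calcium retained at 10 μM compound expressed as ratio versus cyclosporin A positive control.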

SH-SY5Y cells = test: Thapsigargin treated cell death assay in SH-SY5Y cells; type: cell-based, human; conditions: compound at 10 μM, positive = protection from cell death, negative = compound toxicity
From the text: Thapsigargin raises intracellular free calcium (Ca^2+) by potently inhibiting the endoplasmic reticulum Ca-ATPase, which sequesters Ca^2+ from the cytosol. The increased cytosolic Ca^2+ concentration is buffered by mitochondria by exchanging Ca^2+ for K, leading to depolarisation in the inner mitochondrial membrane and permeability transition.
The thapsigargin treated Jurkat cell death assay is a homogeneous 96 well plate based assay for cell death, instigated by the opening of the mitochondrial permeability transition pore (MPTP). The addition of thapsigargin to Jurkat cells results in an influx of calcium, the increase in intracellular calcium will initially be buffered by the mitochondria, but eventually the increasing calcium concentration will result in the opening of the MPTP, resulting in cell death.
CellTox™ Green is a dye which is unable to enter the cell until cell death leads to the loss of membrane integrity. Once this happens the CellTox™ Green enters the cell, binds to the cell's DNA and emits a fluorescent signal. […] Unless otherwise stated, the assay is typically run using a range of three compound concentrations of 1, 3 and 10 μM in triplicate and is read kinetically over a period of 24 hours. Compounds are added 30 minutes before the addition of thapsigargin. Compound only controls and positive control, cyclosporin A (CsA) (3 and 10 μM) are also included in the assay. Results are typically calculated at the 8 hour time point and the kinetic data is also reported.
The assay is carried out as described for the Jurkat cells but using the SH-SY5Y (human neuroblastoma) cell line instead of Jurkat cells. The results are shown in the fourth column of Table 5 (SY5Y [10 μM]% recovery). Positive numbers indicate protection from cell death, negative numbers indicate compound toxicity.

cyclophilin A, sequence (P62937 whole entry, species assumed): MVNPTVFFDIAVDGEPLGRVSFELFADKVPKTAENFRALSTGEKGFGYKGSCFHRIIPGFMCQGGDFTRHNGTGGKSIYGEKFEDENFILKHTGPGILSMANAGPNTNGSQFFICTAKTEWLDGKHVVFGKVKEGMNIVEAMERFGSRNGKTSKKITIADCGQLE

Row | Structure (SMILES) | Ki (cyclophilin A) [nM] | Ki (cyclophilin D) [nM] | CRC [10 μM] ([1]; listed as 39) | CRC [10 μM] (ratio vs CsA) ([1]; listed as 39) | SYSY [10 μM] % recovery (SH-SY5Y cells; listed as 39) [%] | CRC [10 μM] [1] | CRC [10 μM] (ratio vs CsA) [1] | SYSY [10 μM] % recovery (SH-SY5Y cells) [%] | CRC [10 μM] ([1]; listed as 38) | CRC [10 μM] (ratio vs CsA) ([1]; listed as 38) | SYSY [10 μM] % recovery (SH-SY5Y cells; listed as 38) [%]
1 | CNC(=O)c1ccc(CC2OC(=O)C(C)(C)/C=C/c3ccc4ccc(nc4c3)N(C)NC(=O)[C@@H]3CCCN(N3)C(=O)[C@H](C)NC2=O)cc1 (single isomer, unassigned) [Compound (39)] | 30 | 36 | 15 | 0.67 | 0 | – | – | – | – | – | –
2 | CC(C)[C@@H]1OC(=O)C(C)(C)/C=C/c2ccc3ccc(nc3c2)N(C)NC(=O)[C@@H]2CCCN(N2)C(=O)[C@H](CCC(=O)N2CCNCC2)NC1=O [Compound (69)] | 34 | 41 | – | – | – | 20 | 0.80 | 17 | – | – | –
3 | CC(C)[C@@H]1OC(=O)C(C)(C)/C=C/c2ccc3ccc(nc3c2)N(C)NC(=O)[C@@H]2CCCN(N2)C(=O)[C@H](CCC(=O)NC2CCN(C)CC2)NC1=O [Compound (71)] | 51 | 16 | – | – | – | 18.3 | 0.76 | 4 | – | – | –
4 | C[C@@H]1NC(=O)[C@H](Cc2ccc(NS(C)(=O)=O)cc2)OC(=O)C(C)(C)/C=C/c2ccc3ccc(nc3c2)N(C)NC(=O)[C@@H]2CCCN(N2)C1=O [Compound (46)] | 3 | 2.5 | – | – | – | 25 | 1.00 | 29 | – | – | –
5 | COc1ccc(C[C@@H]2OC(=O)C(C)(C)/C=C/c3ccc4ccc(nc4c3)N(C)NC(=O)[C@@H]3CCCN(N3)C(=O)[C@H](C)NC2=O)cc1 [Compound (60)] | 1.3 | 9.5 | – | – | – | 25 | 0.80 | 37 | – | – | –
6 | CC(C)[C@@H]1OC(=O)[C@@](C)(Cc2ccccc2)/C=C/c2ccc3ccc(nc3c2)N(C)NC(=O)[C@@H]2CCCN(N2)C(=O)[C@H](C)NC1=O [Compound (17)] | 1.7 | 9 | – | – | – | 33.3 | 0.95 | 87.8 | – | – | –
7 | COC[C@]1(C)/C=C/c2ccc3ccc(nc3c2)N(C)NC(=O)[C@@H]2CCCN(N2)C(=O)[C@H](C)NC(=O)[C@H](C(C)C)OC1=O [Compound (14)] | 17 | 25 | – | – | – | 40 | 1.09 | 9.3 | – | – | –
8 | CC(C)[C@@H]1OC(=O)C(C)(C)/C=C/c2ccc3ccc(nc3c2)N(C)NC(=O)[C@@H]2CCCN(N2)C(=O)[C@H](Cc2ccc(CN(C)C)cc2)NC1=O [Compound (79)] | 8.9 | 28 | – | – | – | 28.33 | 0.85 | 1.8 | – | – | –
9 | CC(C)[C@@H]1OC(=O)C(C)(C)/C=C/c2ccc3ccc(nc3c2)N(C)NC(=O)[C@@H]2CCCN(N2)C(=O)[C@H](CCC(=O)NCC2CCOCC2)NC1=O [Compound (67)] | 40 | 26 | – | – | – | 25 | 1.00 | 52 | – | – | –
10 | C[C@@H]1NC(=O)[C@H](CCCN)OC(=O)C(C)(C)/C=C/c2ccc3ccc(nc3c2)N(C)NC(=O)[C@@H]2CCCN(N2)C1=O [Compound (55)] | 110 | 1900 | – | – | – | 5 | 0.25 | 37 | – | – | –
11 | CC(C)[C@@H]1OC(=O)C(C)(C)/C=C/c2ccc3ccc(nc3c2)N(Cc2ccccc2)NC(=O)[C@@H]2CCCN(N2)C(=O)[C@H](C)NC1=O [Compound (9)] | 1.7 | 4.3 | – | – | – | 279.4 | 1 | 87.067 | – | – | –
12 | CC(C)[C@@H]1OC(=O)C(C)(C)/C=C/c2ccc3ccc(nc3c2)N(C)NC(=O)[C@@H]2CCCN(N2)C(=O)[C@H](CCC(=O)N(C)c2ccccc2)NC1=O [Compound (64)] | 5.1 | 59 | – | – | – | 25 | 1.00 | 44 | – | – | –
13 | CC(C)C(=O)Nc1cccc(C[C@@H]2OC(=O)C(C)(C)/C=C/c3ccc4ccc(nc4c3)N(C)NC(=O)[C@@H]3CCCN(N3)C(=O)[C@H](C)NC2=O)c1 [Compound (49)] | 22 | 14 | – | – | – | 20 | 1.00 | 40 | – | – | –
14 | C[C@@H]1NC(=O)[C@H](CCC(N)=O)OC(=O)C(C)(C)/C=C/c2ccc3ccc(nc3c2)N(C)NC(=O)[C@@H]2CCCN(N2)C1=O [Compound (54)] | 36 | 700 | – | – | – | 15 | 0.50 | 10 | – | – | –
15 | CNC(=O)c1ccc(CC2OC(=O)C(C)(C)/C=C/c3ccc4ccc(nc4c3)N(C)NC(=O)[C@@H]3CCCN(N3)C(=O)[C@H](C)NC2=O)cc1 (single isomer, unassigned) [Compound (38)] | 160 | 190 | – | – | – | – | – | – | 7.5 | 0.33 | 8
16 | CC(C)[C@@H]1OC(=O)C(C)(C)/C=C/c2ccc3ccc(nc3c2)N(C)NC(=O)[C@@H]2CCCN(N2)C(=O)[C@H](CCC(=O)N[C@H](C)c2ccccc2)NC1=O [Compound (66)] | 3.6 | 6.6 | – | – | – | 25 | 0.80 | 63 | – | – | –
17 | C[C@@H]1NC(=O)[C@H](Cc2ccccc2Cl)OC(=O)C(C)(C)/C=C/c2ccc3ccc(nc3c2)N(C)NC(=O)[C@@H]2CCCN(N2)C1=O [Compound (81)] | 9.7 | 9.4 | – | – | – | 20 | 0.67 | 44 | – | – | –
18 | CC(C)[C@@H]1OC(=O)C(C)(C)/C=C/c2ccc3ccc(nc3c2)N(C)NC(=O)[C@@H]2CCCN(N2)C(=O)[C@H](CCC(=O)N2CCC(O)CC2)NC1=O [Compound (72)] | 14 | 21 | – | – | – | 20 | 0.80 | 43 | – | – | –

— patent publication US20250243219A1, “MACROCYCLIC COMPOUNDS AND USES THEREOF” (Cypralis Limited, priority 2022, published 2025)
